Assay results reported in ChEMBL document CHEMBL3525941, “Comparison of in vitro metabolism of ticlopidine by human cytochrome P450 2B6 and rabbit cytochrome P450 2B4” (Drug Metab Dispos, 2011).

Tests used:
[1] = Retention time of the compound by HPLC-MS analysis; type: physicochemical
Cytochrome P450 2B4 [2] = biological target: T1, Cytochrome P450 2B4 (Oryctolagus cuniculus, UniProt P00178); test: Activity of rabbit CYP2B4 assessed as observed rate constant for enzyme-mediated compound formation treated with 1 uM ticlopidine by HPLC-MS analysis in presence of NADPH; type: ADME
T1 sequence (P00178 whole entry): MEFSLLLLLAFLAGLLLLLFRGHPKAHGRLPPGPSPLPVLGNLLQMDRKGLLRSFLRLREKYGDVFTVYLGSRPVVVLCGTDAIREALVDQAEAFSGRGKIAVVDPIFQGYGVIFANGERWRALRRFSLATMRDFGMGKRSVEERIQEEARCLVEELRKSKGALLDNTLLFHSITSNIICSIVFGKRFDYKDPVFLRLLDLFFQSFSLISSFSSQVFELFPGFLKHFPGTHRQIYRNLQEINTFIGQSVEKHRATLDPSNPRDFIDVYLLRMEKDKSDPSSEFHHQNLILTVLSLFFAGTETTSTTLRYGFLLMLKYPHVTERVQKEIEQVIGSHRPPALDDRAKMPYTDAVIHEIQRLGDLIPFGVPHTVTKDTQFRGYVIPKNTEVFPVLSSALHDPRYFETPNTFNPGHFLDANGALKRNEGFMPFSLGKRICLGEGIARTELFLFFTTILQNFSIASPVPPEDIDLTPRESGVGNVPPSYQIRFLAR

Cytochrome P450 2B6 [3] = biological target: T2, Cytochrome P450 2B6 (Homo sapiens, UniProt P20813); test: Activity of human CYP2B6 assessed as observed rate constant for enzyme-mediated compound formation treated with 1 uM ticlopidine by HPLC-MS analysis in presence of NADPH; type: ADME
T2 sequence (P20813 whole entry): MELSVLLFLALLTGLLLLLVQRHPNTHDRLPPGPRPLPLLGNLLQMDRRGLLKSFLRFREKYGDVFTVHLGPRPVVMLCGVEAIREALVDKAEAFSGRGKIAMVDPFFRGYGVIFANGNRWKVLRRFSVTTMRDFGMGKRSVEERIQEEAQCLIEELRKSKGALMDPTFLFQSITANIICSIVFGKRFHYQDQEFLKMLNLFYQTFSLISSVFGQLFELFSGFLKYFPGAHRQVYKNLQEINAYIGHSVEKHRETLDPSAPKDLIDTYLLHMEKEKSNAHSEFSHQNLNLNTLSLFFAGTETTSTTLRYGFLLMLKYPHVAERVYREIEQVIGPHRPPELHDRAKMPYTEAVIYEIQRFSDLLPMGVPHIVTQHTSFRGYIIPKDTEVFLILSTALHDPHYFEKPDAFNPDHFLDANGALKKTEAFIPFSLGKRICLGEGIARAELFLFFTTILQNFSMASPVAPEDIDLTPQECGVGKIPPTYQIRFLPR

Cytochrome P450 2B6 [4] = biological target: T2, Cytochrome P450 2B6; test: Activity of recombinant full-length CYP2B6 (unknown origin) expressed in baculovirus-infected insect cells assessed as enzyme-mediated compound formation treated with 10 uM ticlopidine for 60 mins by HPLC-MS analysis in presence of NADPH; type: ADME; settings: 1 h
Cytochrome P450 2B4 [5] = biological target: T1, Cytochrome P450 2B4; test: Activity of rabbit CYP2B4 assessed as enzyme-mediated compound formation treated with 10 uM ticlopidine for 60 mins by HPLC-MS analysis in presence of NADPH; type: ADME; settings: 1 h
Cytochrome P450 2B6 [6] = biological target: T2, Cytochrome P450 2B6; test: Activity of human CYP2B6 assessed as enzyme-mediated compound formation treated with 10 uM ticlopidine for 60 mins by HPLC-MS analysis in presence of NADPH; type: ADME; settings: 1 h
Liver microsome = test: Drug level in human liver microsomes assessed as compound formation treated with 10 uM ticlopidine for 60 mins by HPLC-MS analysis in presence of NADPH; type: ADME; settings: 1 h
CYP2B4 = biological target: T3, CYP2B4 (Oryctolagus cuniculus, UniProt P00178); test: Inhibition of rabbit CYP2B4 assessed as inactivation rate constant at 100 uM for 2 mins by HPLC-MS analysis in presence of NADPH; type: ADME
T3 sequence (P00178 whole entry): T1 sequence (P00178 whole entry)

CYP2B6 = biological target: T4, CYP2B6 (Homo sapiens, UniProt P20813); test: Inhibition of human CYP2B6 assessed as inactivation rate constant at 100 uM for 2 mins by HPLC-MS analysis in presence of NADPH; type: ADME
T4 sequence (P20813 whole entry): T2 sequence (P20813 whole entry)

## OC1CN(Cc2ccccc2Cl)Cc2ccsc21 (stereo not given)
[1]
  Retention_time: 4.56 min
Cytochrome P450 2B4 [2]
  kobs: 0.49 min⁻¹
Cytochrome P450 2B6 [3]
  kobs: 0.48 min⁻¹
Cytochrome P450 2B6 [4]
  Compound recovery: metabolite_detected
Cytochrome P450 2B4 [5]
  Compound recovery: metabolite_detected
Cytochrome P450 2B6 [6]
  Compound recovery: metabolite_detected
Liver microsome
  Compound recovery: metabolite_detected

## O=C1C=C2CN(Cc3ccccc3Cl)CCC2S1 (stereo not given)
[1]
  Retention_time: 4.9 min
Cytochrome P450 2B4 [2]
  kobs: 0.48 min⁻¹
Cytochrome P450 2B6 [3]
  kobs: 0.5 min⁻¹
Cytochrome P450 2B6 [4]
  Compound recovery: metabolite_detected
Cytochrome P450 2B4 [5]
  Compound recovery: metabolite_detected
Cytochrome P450 2B6 [6]
  Compound recovery: metabolite_detected
Liver microsome
  Compound recovery: metabolite_detected

## Clc1ccccc1C[N+]1=Cc2ccsc2CC1
Cytochrome P450 2B6 [4]
  Compound recovery: metabolite_detected
Cytochrome P450 2B4 [5]
  Compound recovery: metabolite_detected
Cytochrome P450 2B6 [6]
  Compound recovery: metabolite_detected
Liver microsome
  Compound recovery: metabolite_detected

## Clc1ccccc1C[n+]1ccc2sccc2c1
Cytochrome P450 2B4 [2]
  kobs: 0.56 min⁻¹
Cytochrome P450 2B6 [4]
  Compound recovery: metabolite_detected
Cytochrome P450 2B4 [5]
  Compound recovery: metabolite_detected
Cytochrome P450 2B6 [6]
  Compound recovery: metabolite_detected
Liver microsome
  Compound recovery: metabolite_detected

## [O-][N+]1(Cc2ccccc2Cl)CCc2sccc2C1 (stereo not given)
[1]
  Retention_time: 8 min
Cytochrome P450 2B4 [2]
  kobs: 0.66 min⁻¹
Cytochrome P450 2B6 [3]
  kobs: 0.61 min⁻¹
Cytochrome P450 2B6 [4]
  Compound recovery: metabolite_detected
Cytochrome P450 2B4 [5]
  Compound recovery: metabolite_detected
Cytochrome P450 2B6 [6]
  Compound recovery: metabolite_detected
Liver microsome
  Compound recovery: metabolite_detected

## CCOc1ccc2c(C(F)(F)F)cc(=O)oc2c1
CYP2B4
  kinact at 2 min, 100 µM: 0.000333 s⁻¹
CYP2B6
  kinact at 2 min, 100 µM: 0.00167 s⁻¹

## CC(NC(C)(C)C)C(=O)c1cccc(Cl)c1 (stereo not given) [BUPROPION]
[1]
  Retention_time: 9.7 min
CYP2B4
  kinact at 2 min, 100 µM: 0.00133 s⁻¹
CYP2B6
  kinact at 2 min, 100 µM: 0.00533 s⁻¹
